# What was measured:
# RLS = conditions: open trials
# [1] = system: patients suffering from moderate to severe RLS
# Excerpt: The expression moderate to severe RLS is used when patients reach a points score of >15 on the international RLS scale. The scale runs from 0 (no RLS symptoms) to 40 (severest form of RLS). Thus, in moderate to severe RLS, the symptoms usually occur more than twice a week.
# [2] = system: patients with idiopathic RLS; conditions: continuous treatment over 6 months or more
# Description: The severity of the symptoms was determined by means of the difference between the time of randomisation after 6 months and the results after the end of the trial, according to the international RLS scale. The results of 147 patients were evaluated.
compound,measurement,setting,value
"CCCNC1CCc2nc(N)sc2C1.Cl.Cl (stereo not drawn) [pramipexole, 2-amino-6-n-propylamino-4,5,6,7-tetrahydrobenzo-thiazole dihydrochloride]",persistence of lasting clinical effects,RLS,≥ 12 months
same,"patient-reported improvement in symptoms (quality of sleep, restlessness of the legs, etc.)",[1]; after only one week of treatment,significant improvements in all areas of symptoms
same,subjective impression of treated patients,[1]; majority of treated patients,great or very great improvement
same,improvement in the RLS symptoms,[1]; patients with moderate to severe RLS (>15 points on international RLS scale),rapid improvement in the RLS symptoms
same,duration of improvement in the symptoms in RLS patients (lasting effect),[1]; pramipexole administered continuously,at least 6 months
same,effect of continuous treatment on RLS symptoms,[2],lasting improvement in the RLS symptoms

# Reference: patent publication US20080262053A1 (priority 2005, published 2008)
